Results: patent US20240368150A1 (Hoffmann-La Roche Inc., priority 2021, published 2024)
Read-outs that look alike come from different tables or passages of the source.

Legend:
[1] = system: primary human T-cells; experiment: Proliferation assay after 5 days (CellTiter-Glo, CD3 stimulation; PBS counter screen); type: cell-based; settings: CD3 stimulation; for EC50: primary human T-cells, CellTiter-Glo after 5 days, EC50 of fitted sigmoidal curve, read-out: Tcell Proliferation CD3 EC50; for Emax: read-out: Emax proliferation (% activation)
How it was run: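 Proliferation is measured 5 days post-treatment as ATP-dependent luminescence. Flags mark compounds that activated unstimulated cells or harmed viability.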

[2] = system: primary human T-cells
[3] = target: hDGKalpha(1-735)-N-His (Homo sapiens (Human), UniProt P23743); experiment: DGKalpha ADP Glo assay (in vitro DGK inhibition); type: biochemical; settings: DLG 125 uM, ATP 25 μM, DGK α 4 nM, 1 hour reaction
hDGKalpha(1-735)-N-His, sequence (P23743 whole entry): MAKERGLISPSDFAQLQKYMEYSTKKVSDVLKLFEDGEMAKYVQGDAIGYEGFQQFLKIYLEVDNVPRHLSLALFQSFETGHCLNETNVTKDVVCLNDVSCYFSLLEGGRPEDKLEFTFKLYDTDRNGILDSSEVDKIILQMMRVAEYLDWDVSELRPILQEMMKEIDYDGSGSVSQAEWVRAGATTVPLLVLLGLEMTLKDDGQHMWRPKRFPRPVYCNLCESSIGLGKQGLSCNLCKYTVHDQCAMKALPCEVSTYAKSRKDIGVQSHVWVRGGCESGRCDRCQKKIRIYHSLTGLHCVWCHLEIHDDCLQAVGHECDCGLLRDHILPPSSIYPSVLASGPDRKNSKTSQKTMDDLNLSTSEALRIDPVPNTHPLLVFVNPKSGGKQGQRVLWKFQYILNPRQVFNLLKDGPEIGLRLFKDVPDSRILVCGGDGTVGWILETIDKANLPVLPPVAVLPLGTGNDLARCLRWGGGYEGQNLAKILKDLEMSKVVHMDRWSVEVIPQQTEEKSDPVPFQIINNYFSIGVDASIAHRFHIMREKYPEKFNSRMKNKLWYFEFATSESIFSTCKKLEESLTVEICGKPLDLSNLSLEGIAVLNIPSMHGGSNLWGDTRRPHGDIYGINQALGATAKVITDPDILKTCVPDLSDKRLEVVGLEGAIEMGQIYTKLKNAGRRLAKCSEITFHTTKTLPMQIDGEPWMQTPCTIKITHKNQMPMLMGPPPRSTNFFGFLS
Protocol: (§1) DGK α and ζ kinase use ATP to phosphorylate the substrate 1,2-dilauroyl-sn-glycerol (DLG, incorporated in the liposomes). ATP is converted to ADP as a result of this enzymatic reaction. After the kinase reaction, an ATP-depletion reagent is added to terminate the kinase reaction and deplete any remaining ATP, leaving only ADP. Second, a detection reagent is added to simultaneously convert ADP to ATP and allow the newly synthesized ATP to be converted to light using a coupled luciferase/luciferin reaction.
(§2) Purification of both enzymes was performed as previously described by Takahashi et al., PeerJ, 2018 (Takahashi, D.; Sakane, F. Expression and purification of human diacylglycerol kinase alpha from baculovirus-infected insect cells for structural studies. PeerJ 2018, 6, No. e5449).
(§3) A concentrated liposome solution was prepared in assay buffer without DTT and BSA: 2 mM of DLG in 21 mM of total liposome (2 mM DLG/8 mM PS/11 mM PC). […] The reactions were started by addition of DGK α and ζ kinases at 4 nM and 2 nM final concentrations, respectively. After 1 hour reaction, the amount of ADP formed was detected with the ADP-Glo kinase assay (Promega) according to the manufacturer instructions. Compounds were added in 11-points dose response, starting at […], 1:3 dilutions, with a final DMSO concentration of 2%. The multidrop combi was used as a liquid handler and luminescence was read with 0.5 s by the envision reader (PE).

[4] = target: hDGKzeta(1-928)-N-His (Homo sapiens (Human), UniProt Q13574); experiment: DGKzeta ADP Glo assay (in vitro DGK inhibition); type: biochemical; settings: DLG 125 uM, ATP 50 μM, DGK ζ 2 nM, 1 hour reaction
hDGKzeta(1-928)-N-His, sequence (Q13574 whole entry): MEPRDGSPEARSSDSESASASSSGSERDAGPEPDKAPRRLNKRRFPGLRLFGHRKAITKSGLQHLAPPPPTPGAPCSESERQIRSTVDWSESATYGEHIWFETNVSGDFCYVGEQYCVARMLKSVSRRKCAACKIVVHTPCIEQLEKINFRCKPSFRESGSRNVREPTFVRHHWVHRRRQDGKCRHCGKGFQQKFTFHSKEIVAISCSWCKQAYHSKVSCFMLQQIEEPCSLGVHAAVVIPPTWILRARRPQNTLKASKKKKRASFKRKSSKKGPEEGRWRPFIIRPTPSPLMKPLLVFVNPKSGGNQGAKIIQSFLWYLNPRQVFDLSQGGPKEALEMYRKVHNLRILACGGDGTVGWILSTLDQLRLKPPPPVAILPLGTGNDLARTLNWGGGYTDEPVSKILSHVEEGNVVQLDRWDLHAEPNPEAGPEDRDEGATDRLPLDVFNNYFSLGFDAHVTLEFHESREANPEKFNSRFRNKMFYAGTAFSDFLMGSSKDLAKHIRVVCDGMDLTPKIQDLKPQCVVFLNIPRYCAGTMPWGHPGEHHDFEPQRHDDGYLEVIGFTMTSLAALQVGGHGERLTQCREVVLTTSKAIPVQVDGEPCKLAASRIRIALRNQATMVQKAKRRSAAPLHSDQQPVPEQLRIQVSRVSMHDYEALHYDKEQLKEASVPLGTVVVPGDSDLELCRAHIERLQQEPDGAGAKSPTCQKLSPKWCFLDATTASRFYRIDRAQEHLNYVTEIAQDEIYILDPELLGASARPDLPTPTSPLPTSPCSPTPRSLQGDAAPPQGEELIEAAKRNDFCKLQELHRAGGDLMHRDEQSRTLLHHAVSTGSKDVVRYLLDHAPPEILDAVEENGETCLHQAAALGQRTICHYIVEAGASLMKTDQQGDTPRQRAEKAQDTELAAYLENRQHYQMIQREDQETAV
Protocol: as §1, §2, §3

[5] = Homo sapiens, T-cell, 120 h, 5 days, normalized to reference compound A1 as stimulator control = 100%, DMSO neutral control

EC50 [2] | IC50 [3] | IC50 [4] | Compound | Emax proliferation (% activation) ([1]; 5 days, normalized to reference compound A1 as stimulator control = 100%, DMSO neutral control) | EC50 [1] | Emax [1, 5] | EC50 ([1]; Homo sapiens, T-cell, 120 h)
2950 nM | 975 nM | 46 nM | N[C@H]1C[S+]([O-])c2cc(F)c(-c3noc(N4CCOC(C(F)(F)F)C4)n3)cc2N(Cc2ccc(Cl)cc2)C1=O (single isomer, unassigned; epimer b) [Example 212] | 178 % activation | 338 nM |  | 
1110 nM | 513 nM | 672 nM | CC(C)(CO)n1nnc(-c2cc3c(cc2F)S(=O)(=O)C[C@H](N)C(=O)N3Cc2ccc(Cl)cc2)n1 [Example 28, (3R)-3-amino-5-[(4-chlorophenyl)methyl]-8-fluoro-7-[2-(2-hydroxy-1,1-dimethyl-ethyl)tetrazol-5-yl]-1,1-dioxo-2,3-dihydro-1λ^6,5-benzothiazepin-4-one] |  |  | 129% | 1260 nM
2330 nM | 403 nM | 114 nM | CC(C)Oc1ccc(CN2C(=O)[C@@H](N)CS(=O)(=O)c3cc(F)c(-c4noc(C(N)C(F)(F)F)n4)cc32)cc1 (stereo partly drawn) [Example 48, (3R)-3-amino-7-[5-(1-amino-2,2,2-trifluoro-ethyl)-1,2,4-oxadiazol-3-yl]-8-fluoro-5-[(4-isopropoxyphenyl)methyl]-1,1-dioxo-2,3-dihydro-1λ^6,5-benzothiazepin-4-one] |  |  | 248% | 3190 nM
1050 nM | 299 nM | 147 nM | CC1(C)CN(c2nc(-c3cc4c(cc3F)S(=O)(=O)C[C@H](N)C(=O)N4Cc3ccc(Cl)cc3)no2)CCO1 [Example 205, (3R)-3-amino-5-[(4-chlorophenyl)methyl]-7-[5-(2,2-dimethylmorpholin-4-yl)-1,2,4-oxadiazol-3-yl]-8-fluoro-1,1-dioxo-2,3-dihydro-16,5-benzothiazepin-4-one] |  |  | 119% | 2120 nM
1500 nM | 214 nM | 100 nM | CC(C)Oc1ccc(CN2C(=O)[C@@H](N)CS(=O)(=O)c3cc(F)c(-c4noc(N5CCOC6(CC6)C5)n4)cc32)cn1 [Example 214, (3R)-3-amino-8-fluoro-5-[(6-isopropoxy-3-pyridyl)methyl]-7-[5-(4-oxa-7-azaspiro[2.5]octan-7-yl)-1,2,4-oxadiazol-3-yl]-1,1-dioxo-2,3-dihydro-1λ^6,5-benzothiazepin-4-one] |  |  | 275% | 2140 nM
5360 nM | 662 nM | 886 nM | CC(C)Oc1ccc(CN2C(=O)[C@@H](N)CS(=O)(=O)c3cc(F)c(-c4noc(N5CCOC6(CC6)C5)n4)cc32)nc1 [Example 215] |  |  | 153% | 2170 nM
236 nM | 836 nM | 1100 nM | CC(C)(C)c1nnc(-c2cc3c(cc2F)S(=O)(=O)C[C@H](N)C(=O)N3Cc2ccc(C(C)(C)C#N)cc2)o1 [Example 244, 2-methyl-2-[4-[[(3R)-3-amino-7-(5-tert-butyl-1,3,4-oxadiazol-2-yl)-8-fluoro-1,1,4-trioxo-2,3-dihydro-1λ^6,5-benzothiazepin-5-yl]methyl]phenyl]propanenitrile] |  |  | 102% | 137 nM
126 nM | 528 nM | 494 nM | COC(F)(c1nc(-c2cc3c(cc2F)S(=O)(=O)C[C@H](N)C(=O)N3Cc2ccc(Cl)cc2)no1)C(F)(F)F (stereo partly drawn) [Example 292, (3R)-3-amino-5-[(4-chlorophenyl)methyl]-8-fluoro-1,1-dioxo-7-[5-(1,2,2,2-tetrafluoro-1-methoxy-ethyl)-1,2,4-oxadiazol-3-yl]-2,3-dihydro-1λ^6,5-benzothiazepin-4-one] |  |  | 179% | 31.9 nM
3310 nM | 1150 nM | 1200 nM | CC(C)(C)NC(=O)c1nc(-c2cc3c(cc2F)S(=O)(=O)C[C@H](N)C(=O)N3Cc2ccc(Cl)cc2)no1 [Example 293, 3-[(3R)-3-amino-5-[(4-chlorophenyl)methyl]-8-fluoro-1,1,4-trioxo-2,3-dihydro-1λ^6,5-benzothiazepin-7-yl]-N-tert-butyl-1,2,4-oxadiazole-5-carboxamide] |  |  | 92% | 2070 nM
169 nM | 373 nM | 357 nM | CC(N)(c1nc(-c2cc3c(cc2F)S(=O)(=O)C[C@H](N)C(=O)N3Cc2ccc(Cl)cc2)no1)C(F)(F)F (stereo partly drawn) [Example 297, (3R)-3-amino-7-[5-(1-amino-2,2,2-trifluoro-1-methyl-ethyl)-1,2,4-oxadiazol-3-yl]-5-[(4-chlorophenyl)methyl]-8-fluoro-1,1-dioxo-2,3-dihydro-1λ^6,5-benzothiazepin-4-one] |  |  | 157% | 219 nM
243 nM | 3940 nM | 481 nM | N[C@H]1CS(=O)(=O)c2cc(F)c(-c3noc(C(N)(c4ccc(F)cc4)C(F)(F)F)n3)cc2N(Cc2ccc(Cl)cc2)C1=O (stereo partly drawn) [Example 300, (3R)-3-amino-7-[5-[1-amino-2,2,2-trifluoro-1-(4-fluorophenyl)ethyl]-1,2,4-oxadiazol-3-yl]-5-[(4-chlorophenyl)methyl]-8-fluoro-1,1-dioxo-2,3-dihydro-1λ^6,5-benzothiazepin-4-one] |  |  | 193% | 127 nM
5040 nM | 43700 nM | 69 nM | Cc1ccc(S(C)(=O)=O)cc1-c1nc(-c2cc3c(cc2F)S(=O)(=O)C[C@H](N)C(=O)N3Cc2ccc(Cl)cc2)no1 [Example 311, (3R)-3-amino-5-[(4-chlorophenyl)methyl]-8-fluoro-7-[5-(2-methyl-5-methylsulfonyl-phenyl)-1,2,4-oxadiazol-3-yl]-1,1-dioxo-2,3-dihydro-1λ^6,5-benzothiazepin-4-one] |  |  | 67% | 1090 nM
1120 nM | 1660 nM | 130 nM | Cc1cc(C)c(-c2nc(-c3cc4c(cc3F)S(=O)(=O)C[C@H](N)C(=O)N4Cc3ccc(Cl)cc3)no2)cn1 [Example 313, (3R)-3-amino-5-[(4-chlorophenyl)methyl]-7-[5-(4,6-dimethyl-3-pyridyl)-1,2,4-oxadiazol-3-yl]-8-fluoro-1,1-dioxo-2,3-dihydro-1λ^6,5-benzothiazepin-4-one] |  |  | 191% | 375 nM
234 nM | 6150 nM | 150 nM | Cc1cc(S(C)(=O)=O)ccc1-c1nc(-c2cc3c(cc2F)S(=O)(=O)C[C@H](N)C(=O)N3Cc2ccc(Cl)cc2)no1 [Example 314, (3R)-3-amino-5-[(4-chlorophenyl)methyl]-8-fluoro-7-[5-(2-methyl-4-methylsulfonyl-phenyl)-1,2,4-oxadiazol-3-yl]-1,1-dioxo-2,3-dihydro-1λ^6,5-benzothiazepin-4-one] |  |  | 78% | 155 nM

Compound | EC50 [2] | IC50 [3] | IC50 [4] | Emax proliferation (% activation) ([1]; 5 days, normalized to reference compound A1 as stimulator control = 100%, DMSO neutral control) | EC50 [1] | Emax [1, 5] | EC50 ([1]; Homo sapiens, T-cell, 120 h)
CC(C)(C)c1nnc(-c2cc3c(cc2F)S(=O)(=O)C[C@H](N)C(=O)N3Cc2ccc(OC3CCCC3)cc2)o1 [Example 253, (3R)-3-amino-7-(5-tert-butyl-1,3,4-oxadiazol-2-yl)-5-[[4-(cyclopentoxy)phenyl]methyl]-8-fluoro-1,1-dioxo-2,3-dihydro-1λ^6,5-benzothiazepin-4-one] | < 15.1 nM | 198 nM | 105 nM |  |  | 116% | 40.3 nM
COC(=O)N1CCC(c2nc(-c3cc4c(cc3F)S(=O)(=O)C[C@H](N)C(=O)N4Cc3ccc(OC4CCCC4)cc3)no2)C1 (stereo partly drawn) [Example 348, methyl 3-[3-[(3R)-3-amino-5-[[4-(cyclopentoxy)phenyl]methyl]-8-fluoro-1,1,4-trioxo-2,3-dihydro-1λ^6,5-benzothiazepin-7-yl]-1,2,4-oxadiazol-5-yl]pyrrolidine-1-carboxylate] | 1710 nM | 2660 nM | 374 nM |  |  | 141% | 662 nM
CC(C)(C)c1nc(-c2cc3c(cc2F)S(=O)(=O)C[C@H](N)C(=O)N3Cc2ccc(OC3CCCC3)cc2)no1 [Example 350, (3R)-3-amino-7-(5-tert-butyl-1,2,4-oxadiazol-3-yl)-5-[[4-(cyclopentoxy)phenyl]methyl]-8-fluoro-1,1-dioxo-2,3-dihydro-1λ^6,5-benzothiazepin-4-one] | 312 nM | 1610 nM | 235 nM |  |  | 256% | 208 nM
